Assay results from PubChem BioAssay (NCI).
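Where inhibition never reached the appropriate level, the endpoint shown equals the highest concentration tested. Otherwise, values were interpolated linearly from a five-concentration, 48-hour dose response in 96-well plates. TGI: concentration producing complete growth inhibition.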

Columns and labels:
Test in all cases: NCI tumour cell line growth inhibition, 48 h
NCI-H23 lung = system: NCI-H23 lung
HCT-116 colon = system: HCT-116 colon
MALME-3M melanoma = system: MALME-3M melanoma
MDA-MB-231 breast = system: MDA-MB-231 breast
SNB-75 CNS = system: SNB-75 CNS
EKVX NSCLC = system: EKVX NSCLC
OVCAR-3 ovarian = system: OVCAR-3 ovarian
NCI/ADR-RES ovarian = system: NCI/ADR-RES ovarian
UACC-62 melanoma = system: UACC-62 melanoma
NCI-H226 lung = system: NCI-H226 lung
SK-MEL-28 melanoma = system: SK-MEL-28 melanoma
A549 NSCLC = system: A549 NSCLC
U251 CNS = system: U251 CNS
SK-MEL-2 melanoma = system: SK-MEL-2 melanoma
SR leukemia = system: SR leukemia
NCI-H460 lung = system: NCI-H460 lung
COLO 205 colon = system: COLO 205 colon
SN12C renal = system: SN12C renal
RPMI-8226 leukemia = system: RPMI-8226 leukemia

Row | SMILES | TGI (NCI-H23 lung) | TGI (HCT-116 colon) | TGI (MALME-3M melanoma) | TGI (MDA-MB-231 breast) | TGI (SNB-75 CNS) | TGI (EKVX NSCLC) | TGI (OVCAR-3 ovarian) | TGI (NCI/ADR-RES ovarian) | TGI (UACC-62 melanoma) | TGI (NCI-H226 lung) | TGI (SK-MEL-28 melanoma) | TGI (A549 NSCLC) | TGI (U251 CNS) | TGI (SK-MEL-2 melanoma) | TGI (SR leukemia) | TGI (NCI-H460 lung) | TGI (COLO 205 colon) | TGI (SN12C renal) | TGI (RPMI-8226 leukemia)
1 | COc1cccc(C2c3cc4c(cc3OC(C)(N3CCCC3)C2C)OCO4)c1 (stereo unspecified) | 71.1 µM | 26.6 µM | 64.7 µM | 27.4 µM | 26.5 µM | 92.1 µM | 22 µM | 40.2 µM | 23.6 µM | 27.3 µM | > 100 µM | 32.1 µM | 35.8 µM | 11.2 µM | > 100 µM | 26.4 µM | 23.6 µM | 48.6 µM | –
2 | CCCCC/C=C1\CCC(CN(C)C)C1=O (stereo unspecified) | 34.6 µM | 25 µM | 28.7 µM | – | 32.3 µM | > 56.3 µM | 30.7 µM | – | 29.4 µM | 29.5 µM | 23.9 µM | > 63.5 µM | 20.7 µM | 34.7 µM | 21.6 µM | > 100 µM | 22.6 µM | 30.1 µM | –
3 | COC(=O)[C@@]1(C)/C(=N/NS(=O)(=O)c2ccc(C)cc2)CCC[C@@H]1C | > 100 µM | > 100 µM | > 100 µM | – | > 100 µM | > 100 µM | > 100 µM | – | > 100 µM | > 100 µM | > 100 µM | > 100 µM | > 100 µM | > 100 µM | 43.6 µM | > 100 µM | > 100 µM | > 100 µM | 72.6 µM
4 | CN(C)CCNC(=O)c1cccc2c(Nc3ccc(S(=O)(=O)N=C(N)N)cc3)c3ccccc3nc12 | > 100 µM | > 100 µM | – | – | 43.8 µM | 55.3 µM | – | – | 22.8 µM | 10.1 µM | 71.2 µM | 48.4 µM | 67 µM | 38.5 µM | > 100 µM | 18.7 µM | 32.2 µM | 59.5 µM | –
5 | CC1=C(CO)C2=C(C)C3(CC3)[C@@](C)(O)C(=O)C2=C1 | 0.284 µM | 0.504 µM | 0.494 µM | 1.34 µM | 0.473 µM | 0.535 µM | 0.735 µM | 0.698 µM | – | 0.528 µM | 1.44 µM | 1.64 µM | – | 0.367 µM | > 100 µM | – | 0.298 µM | 5.21 µM | > 81.6 µM
6 | COC(=O)C(C(=O)Cc1ccccc1[N+](=O)[O-])C(=O)OC | > 100 µM | > 100 µM | > 100 µM | – | > 100 µM | > 100 µM | > 100 µM | – | > 100 µM | > 100 µM | > 100 µM | > 100 µM | – | > 100 µM | > 100 µM | > 100 µM | > 100 µM | > 100 µM | –
7 | CC(Oc1ccc(OCC2CCCCC2)cc1)C(=O)OCC(=O)c1ccc(-c2ccccc2)cc1 (stereo unspecified) | > 100 µM | > 100 µM | > 100 µM | – | > 100 µM | – | > 100 µM | – | > 100 µM | > 100 µM | > 100 µM | > 100 µM | > 100 µM | > 100 µM | – | > 100 µM | – | > 100 µM | –
8 | CS(=O)(=O)c1ccc(-c2cc(-c3ccc(S(C)(=O)=O)cc3)[n+](-c3cc(-c4ccccc4)c([O-])c(-c4ccccc4)c3)c(-c3ccc(S(C)(=O)=O)cc3)c2)cc1 | > 100 µM | > 100 µM | > 100 µM | – | – | > 100 µM | > 100 µM | – | > 100 µM | > 100 µM | > 100 µM | > 100 µM | > 100 µM | > 100 µM | > 100 µM | > 100 µM | > 100 µM | > 100 µM | > 100 µM
9 | CCOC(=O)/C(=C/c1ccc(N(C)C)cc1)N(CC)CC | > 100 µM | > 100 µM | > 100 µM | – | – | > 100 µM | > 100 µM | – | > 100 µM | 94.2 µM | > 100 µM | > 100 µM | > 100 µM | > 100 µM | > 100 µM | – | > 100 µM | > 100 µM | 89 µM
10 | O=C(CC(C(=O)c1ccsc1)c1ccccc1)c1ccccc1 (stereo unspecified) | 36.1 µM | > 100 µM | – | – | > 100 µM | > 100 µM | > 100 µM | > 100 µM | > 100 µM | > 100 µM | > 100 µM | 80 µM | > 100 µM | – | > 100 µM | > 100 µM | > 100 µM | > 100 µM | > 100 µM
11 | C=C(C)C1CCC2(C)CC1c1c(c(C)cc3c1[nH]c1ccccc13)O2 (stereo unspecified) | – | > 25 µM | > 25 µM | – | – | – | > 25 µM | – | > 25 µM | > 25 µM | > 25 µM | > 25 µM | > 25 µM | > 25 µM | > 25 µM | > 25 µM | > 25 µM | > 25 µM | > 25 µM
12 | COc1ccc(C(C#N)NNC(=O)Cc2ccccc2)cc1OC (stereo unspecified) | > 100 µM | > 100 µM | > 100 µM | – | > 100 µM | – | – | – | > 100 µM | > 100 µM | > 100 µM | > 100 µM | > 100 µM | > 100 µM | > 100 µM | > 100 µM | > 100 µM | > 100 µM | > 100 µM
13 | CCOC(=O)C1SC(=Nc2ccccc2)N=C1C (stereo unspecified) | > 100 µM | > 100 µM | > 100 µM | – | 88.7 µM | > 100 µM | > 100 µM | – | – | > 100 µM | > 100 µM | > 100 µM | > 100 µM | > 100 µM | > 100 µM | > 100 µM | > 100 µM | > 100 µM | > 100 µM
14 | Cc1nn(C(=O)CC(=O)Nc2ccc(Cl)cc2)c(C)c1N=Nc1ccccc1C(=O)O | > 100 µM | > 100 µM | > 100 µM | – | > 100 µM | > 100 µM | > 100 µM | – | > 100 µM | – | > 100 µM | > 100 µM | > 100 µM | > 100 µM | – | > 100 µM | > 100 µM | > 100 µM | > 100 µM
15 | C[N+](C)(C)CC1CCC/C1=N\OC(=O)c1ccccc1 (stereo unspecified) | > 100 µM | > 100 µM | > 100 µM | – | > 100 µM | > 100 µM | > 100 µM | – | > 100 µM | > 100 µM | > 100 µM | > 100 µM | > 100 µM | > 100 µM | > 100 µM | – | > 100 µM | > 100 µM | > 100 µM
16 | C=CN1C(=O)[C@H](Oc2ccccc2)[C@@H]1c1ccccc1 | 60 µM | > 100 µM | > 100 µM | – | 61.8 µM | > 100 µM | – | – | – | > 100 µM | > 100 µM | 85 µM | > 100 µM | > 100 µM | > 100 µM | > 100 µM | – | > 100 µM | 57 µM
17 | O=[N+]([O-])c1ccc(-c2cnc3ccccn23)cc1 | > 100 µM | > 100 µM | > 100 µM | – | 92 µM | > 100 µM | > 100 µM | – | > 100 µM | > 100 µM | > 100 µM | > 100 µM | > 100 µM | > 100 µM | > 100 µM | > 100 µM | > 100 µM | > 100 µM | > 100 µM
18 | CC1CN=C(N(C(=O)Nc2ccc(Cl)c(Cl)c2)c2ccccc2)S1 (stereo unspecified) | > 100 µM | > 100 µM | > 100 µM | > 100 µM | > 100 µM | > 100 µM | > 100 µM | > 100 µM | – | – | > 100 µM | > 100 µM | > 100 µM | 97.1 µM | – | > 100 µM | > 100 µM | > 100 µM | > 100 µM
19 | COc1cccc(C2CC23C(=O)NC(=O)NC3=O)c1 (stereo unspecified) | > 100 µM | > 100 µM | > 100 µM | – | – | > 100 µM | > 100 µM | – | > 100 µM | > 100 µM | > 100 µM | > 100 µM | > 100 µM | > 100 µM | > 100 µM | > 100 µM | > 100 µM | > 100 µM | > 100 µM
20 | C=CCC1(CN(C)C)CC/C(=C\c2ccc(Cl)cc2)C1=O (stereo unspecified) | > 100 µM | > 94.5 µM | > 100 µM | – | > 90.3 µM | > 100 µM | > 100 µM | – | > 100 µM | > 100 µM | > 100 µM | > 100 µM | > 100 µM | > 100 µM | 20.3 µM | 45.6 µM | > 59.8 µM | > 100 µM | 53.6 µM
21 | CC(C)=CC1CC(=[N+]=[N-])C(=O)C1(C)C (stereo unspecified) | > 100 µM | > 100 µM | > 100 µM | – | > 86.5 µM | > 100 µM | > 100 µM | – | > 100 µM | > 100 µM | > 100 µM | > 100 µM | > 100 µM | > 100 µM | 44.4 µM | > 100 µM | > 100 µM | > 100 µM | > 74.6 µM
22 | CC1(C)CC(=O)CC(=Nc2ccc([N+](=O)[O-])cc2)C1 | > 100 µM | 40.9 µM | > 100 µM | – | > 100 µM | > 100 µM | > 100 µM | – | > 100 µM | > 100 µM | > 100 µM | > 100 µM | 31.7 µM | > 100 µM | 88.5 µM | > 100 µM | > 100 µM | > 100 µM | > 100 µM
